The values below come from patent publication US5045566A, “Novel imidate insecticides” (ICI Americas Inc., priority 1989, dated 1991).

What all share (type): in vivo
Test [1] concerns Maize weevil [Sitophilus zeamais (Motschulsky)]. In words: Maize weevil on dipped corn seeds (MW), 48 hours. The settings on record: percent in solution, adult weevils. In short, it runs like this: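 LC50, given as percent of compound in dipping solution, comes from dosage-mortality curves over concentrations descending from 0.01%. Four corn seeds soaked 2-3 s in 50:50 acetone:water solution were dried and held with 10 adult weevils, about 25° C, mortality read after 48 h.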

Test [2] relates to Tobacco Budworm [Heliothis virescens (Fabricius)] eggs. In words: Tobacco budworm eggs (TBW-E). Particulars: percent in solution; 2-day old eggs. In short, it runs like this:
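Mortality of dipped eggs served as read-out, recorded after untreated controls hatched and began feeding. Treatments used acetone solutions from 0.1% downward, with eggs incubated at 78° F; LC50 is expressed as percent of compound in the solution.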

Test [3] has as its system Housefly [Musca domestica]. In words: Housefly contact mortality in dishes (HF), 48 hours. Particulars: μg of test compound per 25 female flies. In short, it runs like this: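 LC50, as μg compound per 25 female flies, comes from dosage-mortality curves with doses from 100 μg downward. Residues were made by evaporating acetone plus 0.01% peanut oil in dishes, onto which 1-2-day-old females were caged; deaths were counted after 48 hours.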

Test [4] relates to Aster Leafhopper [Macrosteles fascifrens (Stal)]. In words: Aster leafhopper on dipped oat seedlings (LH), 48 hours. Particulars: percent in solution, adults/nymphs. How it is done: The compounds in Tables 1 and 2 above were tested for insecticidal activity using the following testing procedures. LC50 values, based on the results of these tests and calculated according to dosage-mortality curves, are expressed in Table 3.
Aster Leafhopper [Macrosteles fascifrens (Stal)]
Oat seedlings (Avena sp) were grown in a commercial potting soil in cups. When the plants were approximately 10 cm tall they were thinned to three plants per cup and dipped for 2-3 seconds in 50-50 acetone-water solutions of the test compounds. When the plants had dried, a clear plastic tube was placed over them and the bottom end pressed into the cup. Ten aster leafhopper adults/nymphs were then placed in each tube and the tops of the tubes covered with white organdy cloth. Mortality counts were made after 48 hours. Test concentrations ranged from 0.05% down to that at which 50% mortality occurred. The LC50 values are expressed below in Table 3 under the heading "LH" in terms of the percent of the test compound in the solution.

Test [5] deals with Cabbage Looper [Trichoplusia ni (Hubner)]. Put plainly: Cabbage looper leaf dip (CL), 3-5 days. Particulars: percent in solution, second-instar larvae. The procedure, abridged: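 Steps: dilute compound in 50-50 acetone-water from 0.1% downward; immerse cotyledon pieces 2-3 s and dry; place in humid petri dishes with five second-instar larvae; record mortality at 3-5 days. Dosage-mortality curves yield LC50 as percent in solution.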

Test [6] has as its system Black Bean Aphid [Aphis fabae (Scop.)]. In words: Black bean aphid spray test on nasturtium (BBA), 48 hours. Particulars: percent of test compound in sprayed solution. In short, it runs like this:
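LC50, given as percent test compound in the sprayed liquid, was calculated from dosage-mortality curves using concentrations from 0.05% downward. Sprays in 50:50 acetone-water went to runoff on ~5 cm nasturtiums carrying 25-50 aphids of mixed ages, one day after infestation. Deaths were counted 48 h later under greenhouse conditions.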

Take `CC(C)C(=Nc1ccccc1Cl)OCc1cccc(Oc2ccccc2)c1` [Compound 17]: the “LC50 MW” value in test [1] was greater than 0.01%. The “LC50 TBW E (eggs)” value in test [2] is on record as greater than 0.1%. For the same molecule, the “LC50 HF” value in test [3] was 75 µg. The “LC50 LH” value in test [4] is recorded as greater than 0.05%. Besides, the “LC50 CL” value in test [5] came to 0.03%. Moreover, the “LC50 BBA” value in test [6] is 0.03%.
`N#CC(=Nc1ccc(Cl)cc1)OCc1cccc(Oc2ccccc2)c1` [Compound 21]: the “LC50 MW” value in test [1] is given as greater than 0.01%. Also, in test [2], the “LC50 TBW E (eggs)” value is recorded as greater than 0.1%. In addition, in test [3], the “LC50 HF” value was determined as 7 µg. The “LC50 LH” value in test [4] is listed as greater than 0.05%. In test [5], the “LC50 CL” value is listed as 0.02%. The “LC50 BBA” value in test [6] is greater than 0.1%.
For `CC(C)(C)C(=Nc1ccc(Cl)c(Cl)c1)OCc1cccc(Oc2ccccc2)c1` [Compound 25], the “LC50 MW” value in test [1] was greater than 0.01%. Further, in test [2], the “LC50 TBW E (eggs)” value is greater than 0.1%. In addition, the “LC50 HF” value in test [3] is greater than 100 µg. In addition, the “LC50 LH” value in test [4] was greater than 0.05%. Besides, in test [5], the “LC50 CL” value is 0.01%. In addition, the “LC50 BBA” value in test [6] is greater than 0.1%.
As for `CC(C)C(=Nc1ccccc1)OCc1cccc(Oc2ccccc2)c1` [Compound 43], in test [1], the “LC50 MW” value is listed as greater than 0.01%. Further, the “LC50 TBW E (eggs)” value in test [2] is recorded as 0.05%. For the same molecule, in test [3], the “LC50 HF” value stood at 7 µg. Further, the “LC50 LH” value in test [4] is greater than 0.05%. In addition, in test [5], the “LC50 CL” value worked out at 0.018%. Also, in test [6], the “LC50 BBA” value amounted to 0.001%.
With `Fc1ccc(N=C(OCc2cccc(Oc3ccccc3)c2)C(F)F)cc1` [Compound 50], the “LC50 MW” value in test [1] is reported as greater than 0.01%. Also, in test [2], the “LC50 TBW E (eggs)” value is greater than 0.05%. Further, in test [3], the “LC50 HF” value came to 43 µg. Besides, the “LC50 LH” value in test [4] is greater than 0.05%. The “LC50 CL” value in test [5] is 0.02%. Moreover, the “LC50 BBA” value in test [6] amounted to 0.01%.
On to `CC(C)C(=Nc1ccccc1C(F)(F)F)OCc1cccc(Oc2ccccc2)c1` [Compound 72], for which the “LC50 MW” value in test [1] was greater than 0.01%. Further, in test [2], the “LC50 TBW E (eggs)” value is greater than 0.1%. Besides, the “LC50 HF” value in test [3] was greater than 100 µg. The “LC50 LH” value in test [4] is reported as greater than 0.05%. Moreover, the “LC50 CL” value in test [5] was 0.08%. The “LC50 BBA” value in test [6] is on record as greater than 0.05%.
Consider `CCS(=O)(=O)c1ccc(N=C(OCc2cccc(Oc3ccccc3)c2)C(C)C)cc1Cl` [Compound 112], for which, in test [1], the “LC50 MW” value was greater than 0.01%. The “LC50 TBW E (eggs)” value in test [2] is reported as greater than 0.1%. In addition, the “LC50 HF” value in test [3] is greater than 100 µg. The “LC50 LH” value in test [4] is greater than 0.05%. In addition, in test [5], the “LC50 CL” value was 0.025%. In addition, the “LC50 BBA” value in test [6] is listed as 0.05%.
Regarding `Fc1ccc(N=C(OCc2cccc(Oc3ccccc3)c2)C(F)(F)C(F)(F)F)cc1Cl` [Compound 117], the “LC50 MW” value in test [1] is greater than 0.01%. Also, the “LC50 TBW E (eggs)” value in test [2] is on record as greater than 0.1%. The “LC50 HF” value in test [3] was 55 µg. In test [4], the “LC50 LH” value worked out at 0.0003%. Also, the “LC50 CL” value in test [5] turned out to be 0.006%. Also, the “LC50 BBA” value in test [6] is greater than 0.05%.
On to `CC(C)C(=Nc1ccc(F)c(Cl)c1)OCc1cccc(Oc2ccccc2F)c1` [Compound 119], for which the “LC50 MW” value in test [1] is on record as greater than 0.01%. In test [2], the “LC50 TBW E (eggs)” value is listed as 0.048%. In addition, in test [3], the “LC50 HF” value was 27 µg. In addition, the “LC50 LH” value in test [4] stood at 0.0008%. In addition, in test [5], the “LC50 CL” value was found to be 0.0007%. For the same molecule, the “LC50 BBA” value in test [6] is greater than 0.05%.
Consider `CC1(C)C(C(=Nc2ccc(F)c(Cl)c2)OCc2cccc(Oc3ccccc3)c2)C1(C)C` [Compound 124], for which the “LC50 MW” value in test [1] was greater than 0.01%. Moreover, the “LC50 TBW E (eggs)” value in test [2] is greater than 0.1%. For the same molecule, the “LC50 HF” value in test [3] is 17 µg. Also, the “LC50 LH” value in test [4] is recorded as greater than 0.05%. Also, in test [5], the “LC50 CL” value stood at 0.01%. For the same molecule, in test [6], the “LC50 BBA” value is greater than 0.05%.
As for `CC(C)C(=Nc1cccc(Br)c1)OCc1cccc(Oc2ccccc2)c1` [Compound 128], in test [1], the “LC50 MW” value is greater than 0.01%. Further, in test [2], the “LC50 TBW E (eggs)” value was determined as 0.037%. In addition, the “LC50 HF” value in test [3] was 4.5 µg. For the same molecule, the “LC50 LH” value in test [4] is recorded as 0.003%. Also, the “LC50 CL” value in test [5] is recorded as 0.005%. For the same molecule, in test [6], the “LC50 BBA” value turned out to be 0.001%.
Consider `CC(C)C(=Nc1ccccc1Br)OCc1cccc(Oc2ccccc2)c1` [Compound 132], for which the “LC50 MW” value in test [1] is greater than 0.01%. In test [2], the “LC50 TBW E (eggs)” value is greater than 0.1%. Besides, the “LC50 HF” value in test [3] was 65 µg. In test [4], the “LC50 LH” value is reported as greater than 0.05%. Also, the “LC50 CL” value in test [5] is listed as 0.025%. Also, in test [6], the “LC50 BBA” value came to 0.0025%.
Consider `CSc1ccc(N=C(OCc2cccc(Oc3ccccc3)c2)C(C)C)cc1` [Compound 142], for which, in test [1], the “LC50 MW” value is greater than 0.01%. In addition, the “LC50 TBW E (eggs)” value in test [2] stood at 0.1%. In addition, the “LC50 HF” value in test [3] was determined as 15 µg. Moreover, the “LC50 LH” value in test [4] was greater than 0.05%. The “LC50 CL” value in test [5] is given as 0.005%. The “LC50 BBA” value in test [6] is given as 0.001%.
Turning to `COc1cccc(N=C(OCc2cccc(Oc3ccccc3)c2)C(C)C)c1` [Compound 143], in test [1], the “LC50 MW” value is listed as greater than 0.01%. In addition, the “LC50 TBW E (eggs)” value in test [2] is recorded as less than 0.1%. The “LC50 HF” value in test [3] was 10 µg. Moreover, the “LC50 LH” value in test [4] was 0.006%. Moreover, in test [5], the “LC50 CL” value is 0.002%. In addition, the “LC50 BBA” value in test [6] stood at 0.002%.
On to `COC(=O)c1ccc(N=C(OCc2cccc(Oc3ccccc3)c2)C(C)C)cc1` [Compound 151], for which the “LC50 MW” value in test [1] is on record as greater than 0.01%. In test [2], the “LC50 TBW E (eggs)” value was greater than 0.1%. The “LC50 HF” value in test [3] came to 38 µg. Further, the “LC50 LH” value in test [4] was greater than 0.05%. Moreover, in test [5], the “LC50 CL” value amounted to 0.009%. In addition, the “LC50 BBA” value in test [6] is given as 0.006%.
With `CC(C)C(=Nc1ccc(C(C)(C)C)cc1)OCc1cccc(Oc2ccccc2)c1` [Compound 153], the “LC50 MW” value in test [1] is reported as greater than 0.01%. Besides, in test [2], the “LC50 TBW E (eggs)” value turned out to be 0.1%. Also, in test [3], the “LC50 HF” value was greater than 100 µg. The “LC50 LH” value in test [4] stood at 0.0005%. In test [5], the “LC50 CL” value worked out at 0.004%. Besides, the “LC50 BBA” value in test [6] is on record as 0.003%.
Take `Cc1cccc(N=C(OCc2cccc(Oc3ccccc3)c2)C(C)C)c1` [Compound 155]: in test [1], the “LC50 MW” value was greater than 0.01%. Further, in test [2], the “LC50 TBW E (eggs)” value is recorded as 0.06%. Moreover, in test [3], the “LC50 HF” value turned out to be 9 µg. Besides, the “LC50 LH” value in test [4] is listed as greater than 0.05%. In test [5], the “LC50 CL” value came out at 0.004%. Besides, the “LC50 BBA” value in test [6] came out at 0.001%.
With `Cc1ccc(N=C(OCc2cccc(Oc3ccccc3)c2)C(C)C)cc1` [Compound 156], in test [1], the “LC50 MW” value is reported as greater than 0.01%. Besides, the “LC50 TBW E (eggs)” value in test [2] worked out at 0.05%. Further, the “LC50 HF” value in test [3] was found to be 10 µg. For the same molecule, the “LC50 LH” value in test [4] is listed as greater than 0.05%. Also, in test [5], the “LC50 CL” value amounted to 0.004%. The “LC50 BBA” value in test [6] turned out to be 0.001%.
Turning to `COc1ccc(N=C(OCc2cccc(Oc3ccccc3)c2)C(C)C)cc1` [Compound 160], the “LC50 MW” value in test [1] was greater than 0.01%. Further, in test [2], the “LC50 TBW E (eggs)” value is on record as 0.09%. The “LC50 HF” value in test [3] was 7 µg. The “LC50 LH” value in test [4] was 0.05%. The “LC50 CL” value in test [5] was determined as 0.005%. In test [6], the “LC50 BBA” value is 0.003%.
With `CC(C)C(=Nc1ccc(C#N)cc1)OCc1cccc(Oc2ccccc2)c1` [Compound 172], in test [1], the “LC50 MW” value was greater than 0.01%. Also, the “LC50 TBW E (eggs)” value in test [2] stood at 0.04%. Besides, the “LC50 HF” value in test [3] amounted to 5 µg. Moreover, in test [4], the “LC50 LH” value was greater than 0.05%. The “LC50 CL” value in test [5] stood at 0.002%. Further, the “LC50 BBA” value in test [6] is listed as greater than 0.05%.
